These molecules were tested against T1, full length AKT E17K (Homo sapiens, UniProt P31749, E17K) (assay: NanoBRET Target Engagement (TE) Assay). Details: competitive displacement of tracer in cells, read-out: AKT1 E17K IC50.
T1 construct: host or cells: HEK-293 (ATCC CRL-1573)
Type: cell-based
Outline: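 Compound and tracer incubated 2 h before luminescence at donor 450 nm and acceptor 600 nm, with extracellular signal inhibited. EC50 by sigmoidal variable-slope regression.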

T1 sequence (P31749 whole entry E17K): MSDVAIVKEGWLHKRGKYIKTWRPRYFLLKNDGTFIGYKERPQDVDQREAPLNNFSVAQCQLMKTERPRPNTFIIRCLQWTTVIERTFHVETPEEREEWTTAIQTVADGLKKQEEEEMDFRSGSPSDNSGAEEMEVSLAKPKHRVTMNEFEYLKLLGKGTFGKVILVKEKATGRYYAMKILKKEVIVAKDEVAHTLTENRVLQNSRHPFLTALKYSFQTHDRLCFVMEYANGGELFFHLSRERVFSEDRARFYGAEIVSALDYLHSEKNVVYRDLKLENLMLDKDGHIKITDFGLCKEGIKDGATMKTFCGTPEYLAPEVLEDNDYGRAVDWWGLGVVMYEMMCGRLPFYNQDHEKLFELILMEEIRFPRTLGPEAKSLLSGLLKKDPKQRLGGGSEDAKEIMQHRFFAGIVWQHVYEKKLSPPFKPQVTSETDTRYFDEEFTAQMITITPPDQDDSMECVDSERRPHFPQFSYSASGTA

| IC50 [nM] | Compound |
| --- | --- |
| < 15 | COc1cccc(-c2ccc3nc(-c4cccnc4N)n(-c4ccc(CN5CCC(Nc6ccnc(C#N)n6)CC5)cc4)c3n2)c1 [Example 395, 4-((1-(4-(2-(2-Aminopyridin-3-yl)-5-(3-methoxyphenyl)-3H-imidazo[4,5-b]pyridin-3-yl)benzyl)piperidin-4-yl)amino)pyrimidine-2-carbonitrile] |
| 15 to 60 | CC(C)(C)c1ccc2nc(-c3cccnc3N)n(-c3ccc(CN4CCC(Nc5ccnc(C#N)n5)CC4)cc3)c2n1 [Example 396, 4-((1-(4-(2-(2-Aminopyridin-3-yl)-5-(tert-butyl)-3H-imidazo[4,5-b]pyridin-3-yl)benzyl)piperidin-4-yl)amino)pyrimidine-2-carbonitrile] |
| < 15 | CCc1ccc2nc(-c3cccnc3N)n(-c3ccc(CN4CCC(Nc5ccnc(C#N)n5)CC4)cc3)c2n1 [Example 397, 4-((1-(4-(2-(2-Aminopyridin-3-yl)-5-ethyl-3H-imidazo[4,5-b]pyridin-3-yl)benzyl)piperidin-4-yl)amino)pyrimidine-2-carbonitrile] |
| < 15 | CNC(=O)c1ccc2nc(-c3cccnc3N)n(-c3ccc(CN4CCC(Nc5ccnc(C#N)n5)CC4)cc3)c2n1 [Example 398, 2-(2-Aminopyridin-3-yl)-3-(4-((4-((2-cyanopyrimidin-4-yl)amino)piperidin-1-yl)methyl)phenyl)-N-methyl-3H-imidazo[4,5-h]pyridine-5-carboxamide] |
| 15 to 60 | N#Cc1nccc(N2CCN(Cc3ccc(-n4c(-c5cccnc5N)nc5ccc(-c6ccncc6C#N)nc54)cc3)CC2)n1 [Example 399, 4-(4-(4-(2-(2-Aminopyridin-3-yl)-5-(3-cyanopyridin-4-yl)-3H-imidazo[4,5-b]pyridin-3-yl)benzyl)piperazin-1-yl)pyrimidine-2-carbonitrile] |
| < 15 | N#Cc1nccc(NC2CCN(Cc3ccc(-n4c(-c5cccnc5N)nc5ccc(-c6ccncc6C#N)nc54)cc3)CC2)n1 [Example 400, 4-((1-(4-(2-(2-Aminopyridin-3-yl)-5-(3-cyanopyridin-4-yl)-3H-imidazo[4,5-b]pyridin-3-yl)benzyl)piperidin-4-yl)amino)pyrimidine-2-carbonitrile] |
| 15 to 60 | N#Cc1nccc(NC2CCN(Cc3ccc(-n4c(-c5cccnc5N)nc5ccc(F)nc54)cc3)CC2)n1 [Example 401, 4-((1-(4-(2-(2-Aminopyridin-3-yl)-5-fluoro-3H-imidazo[4,5-b]pyridin-3-yl)benzyl)piperidin-4-yl)amino)pyrimidine-2-carbonitrile] |
| < 15 | N#Cc1nccc(NC2CCN(Cc3ccc(-n4c(-c5cccnc5N)nc5cc(F)cnc54)cc3)CC2)n1 [Example 402, 4-((1-(4-(2-(2-Aminopyridin-3-yl)-6-fluoro-3H-imidazo[4,5-b]pyridin-3-yl)benzyl)piperidin-4-yl)amino)pyrimidine-2-carbonitrile] |
| < 15 | N#Cc1nccc(NC2CCN(Cc3ccc(-n4c(-c5cccnc5N)nc5ccc(N6CCOC6=O)nc54)cc3)CC2)n1 [Example 403, 4-((1-(4-(2-(2-Aminopyridin-3-yl)-5-(2-oxooxazolidin-3-yl)-3H-imidazo[4,5-b]pyridin-3-yl)benzyl)piperidin-4-yl)amino)pyrimidine-2-carbonitrile] |
| < 15 | N#Cc1nccc(NC2CCN(Cc3ccc(-n4c(-c5cccnc5N)nc5ccc(-c6ccc(F)nc6)nc54)cc3)CC2)n1 [Example 404, 4-((1-(4-(2-(2-Aminopyridin-3-yl)-5-(6-fluoropyridin-3-yl)-3H-imidazo[4,5-b]pyridin-3-yl)benzyl)piperidin-4-yl)amino)pyrimidine-2-carbonitrile] |
| < 15 | N#Cc1nccc(NC2CCN(Cc3ccc(-n4c(-c5cccnc5N)nc5ccc(Cl)nc54)cc3)CC2)n1 [Example 405, 4-((1-(4-(2-(2-Aminopyridin-3-yl)-5-chloro-3H-imidazo[4,5-b]pyridin-3-yl)benzyl)piperidin-4-yl)amino)pyrimidine-2-carbonitrile] |
| < 15 | N#Cc1ccc2nc(-c3cccnc3N)n(-c3ccc(CN4CCC(Nc5ccnc(C#N)n5)CC4)cc3)c2n1 [Example 406, 2-(2-Aminopyridin-3-yl)-3-(4-((4-((2-cyanopyrimidin-4-yl)amino)piperidin-1-yl)methyl)phenyl)-3H-imidazo[4,5-b]pyridine-5-carbonitrile] |
| < 15 | N#Cc1nccc(N2CCN(Cc3ccc(-n4c(-c5cccnc5N)nc5ccc(-c6ncccc6C#N)nc54)cc3)CC2)n1 [Example 407, 4-(4-(4-(2-(2-Aminopyridin-3-yl)-5-(3-cyanopyridin-2-yl)-3H-imidazo[4,5-b]pyridin-3-yl)benzyl)piperazin-1-yl)pyrimidine-2-carbonitrile] |
| < 15 | N#Cc1nccc(NC2CCN(Cc3ccc(-n4c(-c5cccnc5N)nc5ccc(-c6ncccc6C#N)nc54)cc3)CC2)n1 [Example 408, 4-((1-(4-(2-(2-Aminopyridin-3-yl)-5-(3-cyanopyridin-2-yl)-3H-imidazo[4,5-b]pyridin-3-yl)benzyl)piperidin-4-yl)amino)pyrimidine-2-carbonitrile] |
| < 15 | N#Cc1nccc(NC2CCN(Cc3ccc(-n4c(-c5cccnc5N)nc5ccc(-c6cccnc6C#N)nc54)cc3)CC2)n1 [Example 409, 4-((1-(4-(2-(2-Aminopyridin-3-yl)-5-(2-cyanopyridin-3-yl)-3H-imidazo[4,5-b]pyridin-3-yl)benzyl)piperidin-4-yl)amino)pyrimidine-2-carbonitrile] |
| < 15 | N#Cc1nccc(NC2CCN(Cc3ccc(-n4c(-c5cccnc5N)nc5ccc(C(F)(F)F)nc54)cc3)CC2)n1 [Example 410, 4-((1-(4-(2-(2-Aminopyridin-3-yl)-5-(trifluoromethyl)-3H-imidazo[4,5-b]pyridin-3-yl)benzyl)piperidin-4-yl)amino)pyrimidine-2-carbonitrile] |
| 15 to 60 | N#Cc1cnc2c(c1)nc(-c1cccnc1N)n2-c1ccc(CN2CCC(Nc3ccnc(C#N)n3)CC2)cc1 [Example 411, 2-(2-Aminopyridin-3-yl)-3-(4-((4-((2-cyanopyrimidin-4-yl)amino)piperidin-1-yl)methyl)phenyl)-3H-imidazo[4,5-b]pyridine-6-carbonitrile] |
| < 15 | Cc1cc2nc(-c3cccnc3N)n(-c3ccc(CN4CCC(Nc5ccnc(C#N)n5)CC4)cc3)c2nc1C [Example 412, 4-((1-(4-(2-(2-Aminopyridin-3-yl)-5,6-dimethyl-3H-imidazo[4,5-b]pyridin-3-yl)benzyl)piperidin-4-yl)amino)pyrimidine-2-carbonitrile] |
| 15 to 60 | N#Cc1nccc(NC2CCN(Cc3ccc(-n4c(-c5cccnc5N)nc5nccnc54)cc3)CC2)n1 [Example 413, 4-((1-(4-(2-(2-aminopyridin-3-yl)-1H-imidazo[4,5-b]pyrazin-1-yl)benzyl)piperidin-4-yl)amino)pyrimidine-2-carbonitrile] |
| < 15 | COC(=O)c1ccc2nc(-c3cccnc3N)n(-c3ccc(CN4CCC(Nc5ccnc(C#N)n5)CC4)cc3)c2n1 [Example 414, Methyl 2-(2-aminopyridin-3-yl)-3-(4-((4-((2-cyanopyrimidin-4-yl)amino)piperidin-1-yl)methyl)phenyl)-3H-imidazo[4,5-b]pyridine-5-carboxylate] |

Reference: patent US12209087B2, “AKT1 modulators” (Alterome Therapeutics, Inc., priority 2022, dated 2025)
